Data as given in PubChem BioAssay (NCI).
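Five concentrations, 48 hours, 96-well plates. TGI marks complete inhibition of growth.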 Where a SMILES comes first, the peptide text is derived from it. [ ]: non-standard residue; d: D form. The star is where a group is joined. Phe(2-OMe) = COc1ccccc1C[CH](N)C(=O)O; Cbz = O=C(OCc1ccccc1)*; OBn = c1ccc(CO*)cc1

Tests used:
Assay in all cases: growth of human tumour cells (NCI), 48 h
786-0 renal = tested on: 786-0 renal
A498 renal = tested on: A498 renal
A549 NSCLC = tested on: A549 NSCLC
ACHN renal = tested on: ACHN renal
BT-549 breast = tested on: BT-549 breast
CAKI-1 renal = tested on: CAKI-1 renal
CCRF-CEM leukemia = tested on: CCRF-CEM leukemia
COLO 205 colon = tested on: COLO 205 colon
DU-145 prostate = tested on: DU-145 prostate
EKVX NSCLC = tested on: EKVX NSCLC
HCC-2998 colon = tested on: HCC-2998 colon
HCT-116 colon = tested on: HCT-116 colon
HCT-15 colon = tested on: HCT-15 colon
HL-60(TB) leukemia = tested on: HL-60(TB) leukemia
HOP-92 NSCLC = tested on: HOP-92 NSCLC
IGROV1 ovarian = tested on: IGROV1 ovarian
K-562 leukemia = tested on: K-562 leukemia
KM12 colon = tested on: KM12 colon
LOX IMVI melanoma = tested on: LOX IMVI melanoma
M14 melanoma = tested on: M14 melanoma
MALME-3M melanoma = tested on: MALME-3M melanoma
MCF7 breast = tested on: MCF7 breast
MDA-MB-231 breast = tested on: MDA-MB-231 breast
MDA-MB-435 = tested on: MDA-MB-435
MDA-N = tested on: MDA-N
MOLT-4 leukemia = tested on: MOLT-4 leukemia
NCI-H226 lung = tested on: NCI-H226 lung
NCI-H23 lung = tested on: NCI-H23 lung
NCI-H460 lung = tested on: NCI-H460 lung
NCI-H522 lung = tested on: NCI-H522 lung
NCI/ADR-RES ovarian = tested on: NCI/ADR-RES ovarian
OVCAR-3 ovarian = tested on: OVCAR-3 ovarian
OVCAR-4 ovarian = tested on: OVCAR-4 ovarian
OVCAR-5 ovarian = tested on: OVCAR-5 ovarian
OVCAR-8 ovarian = tested on: OVCAR-8 ovarian
PC-3 prostate = tested on: PC-3 prostate
RPMI-8226 leukemia = tested on: RPMI-8226 leukemia
RXF 393 renal = tested on: RXF 393 renal
SF-295 CNS = tested on: SF-295 CNS
SF-539 CNS = tested on: SF-539 CNS
SK-MEL-2 melanoma = tested on: SK-MEL-2 melanoma
SK-MEL-28 melanoma = tested on: SK-MEL-28 melanoma
SK-MEL-5 melanoma = tested on: SK-MEL-5 melanoma
SK-OV-3 ovarian = tested on: SK-OV-3 ovarian
SNB-19 CNS = tested on: SNB-19 CNS
SNB-75 CNS = tested on: SNB-75 CNS
SR leukemia = tested on: SR leukemia
SW-620 colon = tested on: SW-620 colon
TK-10 renal = tested on: TK-10 renal
U251 CNS = tested on: U251 CNS
UACC-257 melanoma = tested on: UACC-257 melanoma
UACC-62 melanoma = tested on: UACC-62 melanoma
UO-31 renal = tested on: UO-31 renal
HOP-62 NSCLC = tested on: HOP-62 NSCLC
HS 578T breast = tested on: HS 578T breast
HT29 colon = tested on: HT29 colon
SF-268 CNS = tested on: SF-268 CNS
SN12C renal = tested on: SN12C renal

Structure (SMILES): CC1(C)OC(CCC#N)CN1C(=O)OCc1ccccc1 (stereo not given)
- TGI (786-0 renal): > 100 µM
- TGI (A498 renal): > 100 µM
- TGI (A549 NSCLC): > 100 µM
- TGI (ACHN renal): > 100 µM
- TGI (BT-549 breast): > 100 µM
- TGI (CAKI-1 renal): > 100 µM
- TGI (CCRF-CEM leukemia): > 100 µM
- TGI (COLO 205 colon): > 100 µM
- TGI (DU-145 prostate): > 100 µM
- TGI (EKVX NSCLC): > 100 µM
- TGI (HCC-2998 colon): > 100 µM
- TGI (HCT-116 colon): > 100 µM
- TGI (HCT-15 colon): > 100 µM
- TGI (HL-60(TB) leukemia): > 100 µM
- TGI (HOP-92 NSCLC): > 100 µM
- TGI (IGROV1 ovarian): > 100 µM
- TGI (K-562 leukemia): > 100 µM
- TGI (KM12 colon): > 100 µM
- TGI (LOX IMVI melanoma): > 100 µM
- TGI (M14 melanoma): > 100 µM
- TGI (MALME-3M melanoma): > 100 µM
- TGI (MCF7 breast): > 100 µM
- TGI (MDA-MB-231 breast): > 100 µM
- TGI (MDA-MB-435): > 100 µM
- TGI (MDA-N): > 100 µM
- TGI (MOLT-4 leukemia): > 100 µM
- TGI (NCI-H226 lung): > 100 µM
- TGI (NCI-H23 lung): > 100 µM
- TGI (NCI-H460 lung): > 100 µM
- TGI (NCI-H522 lung): > 100 µM
- TGI (NCI/ADR-RES ovarian): > 100 µM
- TGI (OVCAR-3 ovarian): > 100 µM
- TGI (OVCAR-4 ovarian): > 100 µM
- TGI (OVCAR-5 ovarian): > 100 µM
- TGI (OVCAR-8 ovarian): > 100 µM
- TGI (PC-3 prostate): > 100 µM
- TGI (RPMI-8226 leukemia): > 100 µM
- TGI (RXF 393 renal): > 100 µM
- TGI (SF-295 CNS): > 100 µM
- TGI (SF-539 CNS): > 100 µM
- TGI (SK-MEL-2 melanoma): > 100 µM
- TGI (SK-MEL-28 melanoma): > 100 µM
- TGI (SK-MEL-5 melanoma): > 100 µM
- TGI (SK-OV-3 ovarian): > 100 µM
- TGI (SNB-19 CNS): > 100 µM
- TGI (SNB-75 CNS): > 100 µM
- TGI (SR leukemia): > 100 µM
- TGI (SW-620 colon): > 100 µM
- TGI (TK-10 renal): > 100 µM
- TGI (U251 CNS): > 100 µM
- TGI (UACC-257 melanoma): > 100 µM
- TGI (UACC-62 melanoma): > 100 µM
- TGI (UO-31 renal): > 100 µM

Structure (SMILES): COC(=O)C(Cc1ccccc1OC)NC(=O)C(CC(=O)OCc1ccccc1)NC(=O)OCc1ccccc1 (stereo not given) (Cbz-Asp(OBn)-[Phe(2-OMe)]-OMe; configuration not given here)
- TGI (786-0 renal): > 100 µM
- TGI (A498 renal): > 100 µM
- TGI (A549 NSCLC): > 100 µM
- TGI (ACHN renal): > 100 µM
- TGI (BT-549 breast): > 100 µM
- TGI (CCRF-CEM leukemia): > 100 µM
- TGI (COLO 205 colon): > 100 µM
- TGI (EKVX NSCLC): > 100 µM
- TGI (HCC-2998 colon): > 100 µM
- TGI (HCT-116 colon): > 100 µM
- TGI (HL-60(TB) leukemia): > 100 µM
- TGI (HOP-62 NSCLC): > 100 µM
- TGI (HOP-92 NSCLC): > 100 µM
- TGI (HS 578T breast): > 100 µM
- TGI (HT29 colon): > 100 µM
- TGI (IGROV1 ovarian): > 100 µM
- TGI (K-562 leukemia): > 100 µM
- TGI (KM12 colon): > 100 µM
- TGI (M14 melanoma): > 100 µM
- TGI (MALME-3M melanoma): > 100 µM
- TGI (MCF7 breast): > 100 µM
- TGI (MDA-N): > 100 µM
- TGI (MOLT-4 leukemia): > 100 µM
- TGI (NCI-H226 lung): > 100 µM
- TGI (NCI-H23 lung): > 100 µM
- TGI (NCI-H460 lung): > 100 µM
- TGI (OVCAR-5 ovarian): > 100 µM
- TGI (OVCAR-8 ovarian): > 100 µM
- TGI (PC-3 prostate): > 100 µM
- TGI (RPMI-8226 leukemia): > 100 µM
- TGI (RXF 393 renal): > 100 µM
- TGI (SK-MEL-2 melanoma): > 100 µM
- TGI (SK-MEL-28 melanoma): > 100 µM
- TGI (SK-MEL-5 melanoma): > 100 µM
- TGI (SNB-19 CNS): > 100 µM
- TGI (SNB-75 CNS): > 100 µM
- TGI (SR leukemia): 84.6 µM
- TGI (SW-620 colon): > 100 µM
- TGI (TK-10 renal): > 100 µM
- TGI (U251 CNS): > 100 µM
- TGI (UACC-257 melanoma): > 100 µM
- TGI (UACC-62 melanoma): > 100 µM
- TGI (UO-31 renal): > 100 µM

Structure (SMILES): O=Cc1cn(CCCCCn2cc(C=O)c3ccccc32)c2ccccc12
- TGI (786-0 renal): > 100 µM
- TGI (A549 NSCLC): > 100 µM
- TGI (ACHN renal): > 100 µM
- TGI (BT-549 breast): > 100 µM
- TGI (CAKI-1 renal): > 100 µM
- TGI (CCRF-CEM leukemia): > 100 µM
- TGI (COLO 205 colon): > 100 µM
- TGI (DU-145 prostate): > 100 µM
- TGI (EKVX NSCLC): > 100 µM
- TGI (HCT-116 colon): > 100 µM
- TGI (HCT-15 colon): > 100 µM
- TGI (HL-60(TB) leukemia): > 100 µM
- TGI (HOP-92 NSCLC): > 100 µM
- TGI (HS 578T breast): 62.2 µM
- TGI (HT29 colon): > 100 µM
- TGI (IGROV1 ovarian): > 100 µM
- TGI (LOX IMVI melanoma): > 100 µM
- TGI (M14 melanoma): > 100 µM
- TGI (MALME-3M melanoma): > 100 µM
- TGI (MDA-MB-231 breast): > 100 µM
- TGI (MDA-MB-435): > 100 µM
- TGI (MDA-N): > 100 µM
- TGI (MOLT-4 leukemia): > 100 µM
- TGI (NCI-H226 lung): > 100 µM
- TGI (NCI-H23 lung): > 100 µM
- TGI (NCI-H460 lung): 11.4 µM
- TGI (NCI-H522 lung): > 100 µM
- TGI (NCI/ADR-RES ovarian): > 100 µM
- TGI (OVCAR-3 ovarian): > 100 µM
- TGI (OVCAR-5 ovarian): 6.5 µM
- TGI (OVCAR-8 ovarian): > 100 µM
- TGI (PC-3 prostate): > 100 µM
- TGI (RPMI-8226 leukemia): > 100 µM
- TGI (RXF 393 renal): > 100 µM
- TGI (SF-268 CNS): 72.6 µM
- TGI (SF-295 CNS): > 100 µM
- TGI (SF-539 CNS): > 100 µM
- TGI (SK-MEL-2 melanoma): > 100 µM
- TGI (SK-MEL-5 melanoma): > 100 µM
- TGI (SK-OV-3 ovarian): > 100 µM
- TGI (SN12C renal): > 100 µM
- TGI (SNB-19 CNS): > 100 µM
- TGI (SR leukemia): > 100 µM
- TGI (SW-620 colon): > 100 µM
- TGI (TK-10 renal): > 100 µM
- TGI (U251 CNS): > 100 µM
- TGI (UACC-257 melanoma): > 100 µM
- TGI (UACC-62 melanoma): > 100 µM
- TGI (UO-31 renal): > 100 µM
